Where a SMILES comes first, the peptide text is derived from it.

For this assay, the target named is HLA B*1503 (Homo sapiens, UniProt P01889, A329T/A93T/A95T/C349S/D201E/D98Y/E187L/E204Q/K202T/N87E/Q94N/R155S/R180L/S121R/S35A/V306I/V36M/Y140S/Y91S). The assay is described as follows: biochemical. The class given is binding.
Compound `CC[C@H](C)[C@H](NC(=O)[C@@H]1CCCN1C(=O)CNC(=O)[C@H](Cc1ccccc1)NC(=O)[C@H](Cc1ccccc1)NC(=O)[C@@H](NC(=O)[C@H](CCCCN)NC(=O)[C@@H](N)CO)C(C)C)C(=O)N[C@@H](Cc1ccc(O)cc1)C(=O)O` [3102.1134] (H-SKVFFGPIY-OH) showed a concentration for half-maximal inhibition (IC50) of 1 nM.
With `CC(C)C[C@H](NC(=O)[C@H](Cc1ccccc1)NC(=O)[C@@H]1CCCN1C(=O)[C@H](CCCNC(=N)N)NC(=O)[C@@H](NC(=O)[C@H](CC(C)C)NC(=O)[C@@H](N)CCCNC(=N)N)C(C)C)C(=O)N[C@H](C(=O)N[C@H](C(=O)O)C(C)C)C(C)C` [3102.1135] (H-RLVRPFLVV-OH), the IC50 came out at 16 nM.
To `CC[C@H](C)[C@H](N)C(=O)N[C@@H](CCCCN)C(=O)N[C@@H](CO)C(=O)N[C@@H](Cc1ccc(O)cc1)C(=O)N[C@H](C(=O)N[C@H](C(=O)N[C@@H](CCCNC(=N)N)C(=O)N[C@H](C(=O)N[C@@H](Cc1ccccc1)C(=O)O)C(C)C)[C@@H](C)CC)[C@@H](C)O` [3102.1137] (H-IKSYTIRVF-OH) belongs 1.6 nM.
To `CC[C@H](C)[C@H](NC(=O)[C@H](CCSC)NC(=O)[C@H](CC(C)C)NC(=O)[C@@H]1CCCN1C(=O)[C@H](CCCNC(=N)N)NC(=O)[C@H](Cc1ccccc1)NC(=O)[C@H](CCCCN)NC(=O)[C@@H](N)CCCCN)C(=O)N[C@@H](Cc1ccccc1)C(=O)O` [3102.1138] (H-KKFRPLMIF-OH) belongs 0.17 nM; to `CC(C)C[C@H](NC(=O)[C@H](Cc1ccccc1)NC(=O)[C@H](CCCNC(=N)N)NC(=O)[C@@H](N)CC(C)C)C(=O)N[C@@H](CCC(=O)O)C(=O)N[C@@H](CCCCN)C(=O)N[C@H](C(=O)N[C@@H](CO)C(=O)N[C@@H](Cc1ccccc1)C(=O)O)[C@@H](C)O` [3102.1139] (H-LRFLEKTSF-OH), 2.2 nM; to `CC[C@H](C)[C@H](NC(=O)[C@@H](NC(=O)[C@H](CCSC)NC(=O)[C@@H](N)CO)C(C)C)C(=O)N[C@@H](CO)C(=O)N[C@@H](CC(C)C)C(=O)N[C@@H](CC(C)C)C(=O)N[C@@H](CO)C(=O)N[C@@H](CCSC)C(=O)O` [3102.1140] (H-SMVISLLSM-OH), 8 nM.
To `CC[C@H](C)[C@H](N)C(=O)N[C@@H](CC(C)C)C(=O)N[C@@H](Cc1c[nH]cn1)C(=O)N[C@@H](CO)C(=O)N[C@@H](CC(=O)O)C(=O)N[C@@H](Cc1ccc(O)cc1)C(=O)N[C@@H](CCC(N)=O)C(=O)N[C@@H](CC(C)C)C(=O)N[C@@H](Cc1ccccc1)C(=O)O` [3102.1141] (H-ILHSDYQLF-OH) belongs 2.4 nM; to `CSCC[C@H](NC(=O)[C@H](CCCCN)NC(=O)[C@@H](N)CCCCN)C(=O)N[C@@H](CCC(N)=O)C(=O)N[C@@H](CO)C(=O)N[C@@H](Cc1ccc(O)cc1)C(=O)N[C@@H](CC(N)=O)C(=O)N[C@@H](CO)C(=O)N[C@H](C(=O)O)C(C)C` [3102.1143] (H-KKMQSYNSV-OH), 2.8 nM; to `CC[C@H](C)[C@H](NC(=O)[C@H](CO)NC(=O)[C@H](Cc1ccc(O)cc1)NC(=O)[C@@H](NC(=O)[C@H](C)NC(=O)[C@H](Cc1c[nH]cn1)NC(=O)[C@@H](N)CC(C)C)C(C)C)C(=O)N[C@H](C(=O)N[C@@H](Cc1ccccc1)C(=O)O)C(C)C` [3102.1145] (H-LHAVYSIVF-OH), 8.8 nM.
Take `CC[C@H](C)[C@H](N)C(=O)N[C@@H](CCCCN)C(=O)N[C@@H](CCC(=O)O)C(=O)N[C@@H](CC(N)=O)C(=O)N[C@@H](CO)C(=O)N[C@H](C(=O)N[C@@H](Cc1ccc(O)cc1)C(=O)N[C@@H](CO)C(=O)N[C@@H](Cc1ccccc1)C(=O)O)[C@@H](C)CC` [3102.1146] (H-IKENSIYSF-OH): the IC50 is 1.5 nM.
`CC[C@H](C)[C@H](NC(=O)[C@H](CO)NC(=O)[C@H](CO)NC(=O)[C@H](CO)NC(=O)[C@H](Cc1ccc(O)cc1)NC(=O)[C@H](C)NC(=O)[C@H](CC(C)C)NC(=O)[C@@H](N)C(C)C)C(=O)N[C@@H](Cc1ccccc1)C(=O)O` [3102.1150] (H-VLAYSSSIF-OH) registered a half-inhibitory concentration (IC50) of 5.4 nM.
To `CC[C@H](C)[C@H](N)C(=O)N[C@@H](Cc1c[nH]cn1)C(=O)N[C@H](C(=O)N1CCC[C@H]1C(=O)N[C@@H](CCC(N)=O)C(=O)N[C@@H](CO)C(=O)N[C@@H](CCC(N)=O)C(=O)N[C@@H](CC(C)C)C(=O)N[C@@H](Cc1ccccc1)C(=O)O)[C@@H](C)CC` [3102.1155] (H-IHIPQSQLF-OH) belongs 5.5 nM.
The value for `CC[C@H](C)[C@H](NC(=O)[C@H](CO)NC(=O)[C@@H](N)Cc1ccccc1)C(=O)N[C@@H](CC(C)C)C(=O)N[C@@H](Cc1ccccc1)C(=O)N[C@@H](CO)C(=O)N[C@@H](CC(N)=O)C(=O)N[C@@H](CC(N)=O)C(=O)N[C@@H](Cc1ccccc1)C(=O)O` [3102.1156] (H-FSILFSNNF-OH) was 30 nM.
Take `CC[C@H](C)[C@H](N)C(=O)N[C@@H](CCC(N)=O)C(=O)N[C@@H](Cc1ccccc1)C(=O)N[C@@H](CCSC)C(=O)N[C@@H](Cc1c[nH]cn1)C(=O)N[C@@H](CCC(=O)O)C(=O)N[C@@H](CCC(N)=O)C(=O)NCC(=O)N[C@@H](Cc1ccc(O)cc1)C(=O)O` [3102.1159] (H-IQFMHEQGY-OH): the IC50 worked out at 3.7 nM.
The value for `CSCC[C@H](NC(=O)[C@@H](N)[C@@H](C)O)C(=O)N[C@H](C(=O)N[C@@H](CC(N)=O)C(=O)N[C@@H](CO)C(=O)N[C@@H](CC(C)C)C(=O)N[C@H](C(=O)N[C@@H](Cc1ccc(O)cc1)C(=O)N[C@@H](Cc1ccccc1)C(=O)O)[C@@H](C)O)C(C)C` [3102.1160] (H-TMVNSLTYF-OH) was 0.13 nM.
`CC(C)C[C@H](NC(=O)[C@@H](N)CCCCN)C(=O)N[C@H](C(=O)N[C@@H](CO)C(=O)N[C@H](C(=O)N[C@@H](CCC(=O)O)C(=O)N[C@H](C(=O)N[C@@H](CO)C(=O)N[C@@H](Cc1ccccc1)C(=O)O)[C@@H](C)O)[C@@H](C)O)[C@@H](C)O` [3102.1165] (H-KLTSTETSF-OH) came in with a half-maximal inhibitory concentration (IC50) of 25 nM.
To `CC[C@H](C)[C@H](NC(=O)[C@@H](NC(=O)[C@H](C)NC(=O)[C@H](CS)NC(=O)[C@H](CCCNC(=N)N)NC(=O)[C@@H](NC(=O)[C@@H](N)Cc1ccccc1)[C@@H](C)O)C(C)C)C(=O)N1CCC[C@H]1C(=O)N[C@@H](Cc1ccccc1)C(=O)O` [3102.1166] (H-FTRCAVIPF-OH) belongs 5.4 nM; to `CC(C)C[C@H](NC(=O)[C@H](Cc1c[nH]c2ccccc12)NC(=O)[C@H](CCCCN)NC(=O)[C@H](C)NC(=O)[C@H](CCCCN)NC(=O)[C@@H](N)Cc1ccccc1)C(=O)N[C@H](C(=O)N1CCC[C@H]1C(=O)N[C@@H](Cc1ccccc1)C(=O)O)[C@@H](C)O` [3102.1174] (H-FKAKWLTPF-OH), 0.073 nM; to `NCCCC[C@H](NC(=O)[C@H](CC(=O)O)NC(=O)[C@H](CC(N)=O)NC(=O)[C@H](CC(N)=O)NC(=O)[C@H](Cc1ccc(O)cc1)NC(=O)[C@H](CCCCN)NC(=O)[C@@H](N)CCCCN)C(=O)N[C@@H](CO)C(=O)N[C@@H](Cc1ccccc1)C(=O)O` [3102.1179] (H-KKYNNDKSF-OH), 0.078 nM.
The value for `CC[C@H](C)[C@H](N)C(=O)N[C@@H](CCC(N)=O)C(=O)N[C@@H](Cc1c[nH]cn1)C(=O)N[C@@H](CC(N)=O)C(=O)N[C@@H](Cc1ccccc1)C(=O)N[C@H](C(=O)N[C@@H](CCC(N)=O)C(=O)N[C@H](C(=O)N[C@@H](C)C(=O)O)[C@@H](C)CC)[C@@H](C)O` [3102.1181] (H-IQHNFTQIA-OH) was 0.25 nM; that for `CSCC[C@H](NC(=O)[C@H](C)NC(=O)[C@H](CCCCN)NC(=O)[C@@H](N)Cc1ccccc1)C(=O)N[C@@H](Cc1c[nH]c2ccccc12)C(=O)N[C@@H](CCCCN)C(=O)N[C@@H](Cc1ccc(O)cc1)C(=O)N1CCC[C@H]1C(=O)N[C@@H](Cc1ccccc1)C(=O)O` [3102.1182] (H-FKAMWKYPF-OH) was 0.11 nM; that for `CSCC[C@H](NC(=O)[C@@H](N)CCSC)C(=O)N[C@H](C(=O)N[C@@H](CO)C(=O)N[C@H](C(=O)N[C@@H](CCC(=O)O)C(=O)N[C@@H](CC(N)=O)C(=O)N[C@@H](CC(N)=O)C(=O)N[C@@H](CC(C)C)C(=O)O)[C@@H](C)O)C(C)C` [3102.1183] (H-MMVSTENNL-OH) was 11 nM.
To `CSCC[C@H](NC(=O)[C@H](CO)NC(=O)[C@H](Cc1ccccc1)NC(=O)[C@H](CC(N)=O)NC(=O)[C@@H](NC(=O)[C@H](CCSC)NC(=O)[C@@H](N)Cc1ccccc1)[C@@H](C)O)C(=O)N[C@H](C(=O)N[C@@H](Cc1ccc(O)cc1)C(=O)O)C(C)C` [3102.1186] (H-FMTNFSMVY-OH) belongs 2.3 nM; to `CC[C@H](C)[C@H](NC(=O)[C@H](Cc1c[nH]cn1)NC(=O)[C@@H](NC(=O)[C@H](Cc1ccc(O)cc1)NC(=O)[C@H](CCC(N)=O)NC(=O)[C@@H](N)CC(C)C)C(C)C)C(=O)N[C@@H](CC(N)=O)C(=O)N[C@@H](CCC(=O)O)C(=O)N[C@@H](CC(C)C)C(=O)O` [3102.1187] (H-LQYVHINEL-OH), 3.7 nM.
On to `CSCC[C@H](NC(=O)[C@@H](N)CCCCN)C(=O)N[C@H](C(=O)N[C@@H](CCCNC(=N)N)C(=O)N[C@H](C(=O)N[C@@H](Cc1ccccc1)C(=O)N[C@@H](CC(N)=O)C(=O)N[C@@H](CCCCN)C(=O)N[C@@H](Cc1ccccc1)C(=O)O)C(C)C)[C@@H](C)O` [3102.1188] (H-KMTRVFNKF-OH), for which half-maximal inhibition (IC50) was put at 0.43 nM.
To `CC(C)C[C@H](NC(=O)[C@H](CC(C)C)NC(=O)[C@@H](NC(=O)[C@H](CO)NC(=O)[C@H](CO)NC(=O)[C@H](CCCCN)NC(=O)[C@@H](N)CCCCN)[C@@H](C)O)C(=O)N[C@H](C(=O)N[C@@H](Cc1ccccc1)C(=O)O)[C@@H](C)O` [3102.1189] (H-KKSSTLLTF-OH) belongs 0.36 nM; to `CC(C)[C@H](NC(=O)[C@@H](NC(=O)[C@H](CC(=O)O)NC(=O)[C@H](CO)NC(=O)[C@H](CCC(N)=O)NC(=O)[C@H](CO)NC(=O)[C@H](CCCCN)NC(=O)[C@H](C)N)[C@@H](C)O)C(=O)N[C@@H](Cc1ccccc1)C(=O)O` [3102.1191] (H-AKSQSDTVF-OH), 0.16 nM; to `CC[C@H](C)[C@H](NC(=O)[C@H](Cc1ccc(O)cc1)NC(=O)[C@H](CO)NC(=O)[C@@H]1CCCN1C(=O)[C@H](Cc1ccc(O)cc1)NC(=O)[C@H](CCSC)NC(=O)[C@@H](N)CO)C(=O)N[C@@H](CCC(=O)O)C(=O)N[C@@H](Cc1ccccc1)C(=O)O` [3102.1196] (H-SMYPSYIEF-OH), 0.11 nM.

Values taken from PMC2248166, “Quantitative peptide binding motifs for 19 human and mouse MHC class I molecules derived using positional scanning combinatorial peptide libraries” (Immunome Research, 2008).
